According to ChEMBL document CHEMBL1146326, “13C bis-labeled pyrroles: a tool for the identification of the rat metabolism of 3-methyl pyrrole-2,4-dicarboxylic acid 2-propyl ester 4-(1,2,2-trimethyl-propyl) ester” (Bioorg Med Chem Lett, 2007):

Target: Metabotropic glutamate receptor 1 (Homo sapiens, UniProt Q13255)
Experiment: Inhibition of recombinant mGluR1a receptor expressed in CHO cells
Type: cell-based

Sequence of Metabotropic glutamate receptor 1 (Q13255 whole entry): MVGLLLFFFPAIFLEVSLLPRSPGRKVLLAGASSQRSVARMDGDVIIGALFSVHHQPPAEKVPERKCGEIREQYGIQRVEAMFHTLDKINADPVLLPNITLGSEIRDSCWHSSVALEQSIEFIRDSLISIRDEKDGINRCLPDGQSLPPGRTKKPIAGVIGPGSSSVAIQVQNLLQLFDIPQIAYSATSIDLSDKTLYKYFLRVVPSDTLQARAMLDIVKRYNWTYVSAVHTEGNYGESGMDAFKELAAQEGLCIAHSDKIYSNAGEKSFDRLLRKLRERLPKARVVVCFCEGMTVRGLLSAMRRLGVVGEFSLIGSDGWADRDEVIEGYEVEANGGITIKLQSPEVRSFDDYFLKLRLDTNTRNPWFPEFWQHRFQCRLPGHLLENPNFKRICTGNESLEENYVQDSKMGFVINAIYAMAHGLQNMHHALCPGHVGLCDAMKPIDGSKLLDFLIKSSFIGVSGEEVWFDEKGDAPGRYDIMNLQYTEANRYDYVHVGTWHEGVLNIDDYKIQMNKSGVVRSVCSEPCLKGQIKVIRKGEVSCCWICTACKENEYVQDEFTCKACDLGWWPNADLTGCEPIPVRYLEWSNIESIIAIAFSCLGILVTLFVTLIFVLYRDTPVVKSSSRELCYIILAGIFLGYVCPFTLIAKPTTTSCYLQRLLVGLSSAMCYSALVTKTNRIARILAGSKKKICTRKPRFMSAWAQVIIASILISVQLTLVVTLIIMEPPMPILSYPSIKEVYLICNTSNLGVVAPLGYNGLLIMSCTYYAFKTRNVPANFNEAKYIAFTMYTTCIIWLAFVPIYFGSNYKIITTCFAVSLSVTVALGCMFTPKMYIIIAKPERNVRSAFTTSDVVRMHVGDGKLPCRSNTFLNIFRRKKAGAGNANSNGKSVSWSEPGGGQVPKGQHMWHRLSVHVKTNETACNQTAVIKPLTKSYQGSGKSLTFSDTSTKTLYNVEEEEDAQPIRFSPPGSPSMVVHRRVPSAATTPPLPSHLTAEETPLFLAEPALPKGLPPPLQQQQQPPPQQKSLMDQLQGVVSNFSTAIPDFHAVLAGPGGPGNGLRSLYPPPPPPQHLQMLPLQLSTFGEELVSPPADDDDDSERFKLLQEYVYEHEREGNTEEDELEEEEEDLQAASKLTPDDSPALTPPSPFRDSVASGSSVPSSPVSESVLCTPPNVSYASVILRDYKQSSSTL

Compound	IC50 [nM]
CC(=O)NCCCCNC(=O)c1[nH]cc(C(=O)OC2CC3CCC2C3)c1C (centres undefined)	200
CC(=O)NCCCCNC(=O)c1[nH]c(C)c(C(=O)OC2CC3CCC2C3)c1C (centres undefined)	1000
COCCNC(=O)c1[nH]cc(C(=O)NC2CC3CCC2C3)c1C (centres undefined)	> 10000
CCOC(=O)c1[nH]c(C)c(C(=O)OC2CC3CCC2C3)c1C (centres undefined)	100
COCCNC(=O)c1[nH]c(C)c(C(=O)OC2CC3CCC2C3)c1C (centres undefined)	316

Second part, the compound after the results:

IC50 [nM]	Compound
31.6	COCCNC(=O)c1[nH]cc(C(=O)O[C@@H](C)C(C)(C)C)c1C
158	COCCNC(=O)c1[nH]cc(C(=O)OC2CC3CCC2C3)c1C (centres undefined)
3.98	CCCOC(=O)c1[nH]cc(C(=O)O[C@@H](C)C(C)(C)C)c1C
20	CCOC(=O)c1[nH]cc(C(=O)OC2CC3CCC2C3)c1C (centres undefined)
